This is an account of results in patent US20260284240A1, “RADIOLABELED COMPOUND FOR USE IN A METHOD OF TREATING CARBONIC ANHYDRASE IX POSITIVE DISEASES” (DEBIOPHARM INTERNATIONAL S.A., priority 2023, published 2026).

Where two headings read alike, the source gives them in different places. Starred links: 1 amine or outer side, 2 acyl side, 3 side chain; linkers in the order of their positions; H or OH if unused. Positions of bridges follow the written chain, without caps; N, C: chain ends. Non-standard residues stand in square brackets, D forms with d. Residues, ends and D or L forms follow the SMILES beside them. *: point of attachment. Phe(3-NHCO(CH2)3SO2NH2) = N[C@@H](Cc1cccc(NC(=O)CCCS(N)(=O)=O)c1)C(=O)O; DOTA = O=C(O)CN1CCN(CC(=O)O)CCN(CC(=O)*)CCN(CC(=O)O)CC1; mXylylene = c1cc(C[*:1])cc(C[*:2])c1; X1 = O=C(CN1CCN([*:1])CC1)[*:2]

Series [1] can be described thus: Biodistribution of In-111-labeled compounds by SPECT/CT in SK-RC-52 tumor-bearing mice, with or without gelofusine. The conditions noted are these: mouse, in vivo. The series is classed as in vivo, mouse. How it is done: (§1) The effect on tumor uptake of prior injection of gelofusine for kidney protection was investigated in mice bearing the SK-RC-52 tumor. Biodistribution was evaluated using in vivo SPECT/CT imaging.
(§2) The study was performed in female NMRI nude mice (approximately 6 weeks of age) from Janvier Labs, France, housed up to 5 mice per cage.
(§3) The column was washed with 2 mL water, and then the final product was eluted from the column in EtOH solution (50%) • The sample was formulated in PBS to the final concentration of 150 MBq/mL and 5 nmol/mL.
(§4) HT-29 cells were cultured in McCoy's 5a Medium Modified (Sigma #M9309). For inoculation of HT-29 cells, cells were harvested, washed twice in PBS and resuspended at 5×10^7 cells/mL in PBS. Cells were kept on ice until inoculation.
(§5) Animals were anaesthetized (isoflurane, 2-4% in ambient air supplemented with 100% O2) prior to tumor inoculation. The tumor cells (100 μL suspension of either SK-RC-52 cells (2×10^6 cells/animal) or HT-29 cells (5×10^6 cells/animal)) were subcutaneously inoculated in the right flank using a 1-mL syringe equipped with a 27G needle. Tumor growth and animal weight were measured twice per week. Tumor size was measured by caliper and the volume was estimated using the following formula: 0.52×(length×width^2). When tumor sizes reached 150-250 mm^3, animals were randomized into groups (n=3) of similar average tumor volume and body weight.
(§6) CT was performed with helical scan, 300 ms exposure, reconstruction resolution of 250 μm. SPECT was performed with multi-pinhole scan and a 30 s frame time. For the quantification of the radioactivity uptake, regions of interests (ROIs) were drawn over the tumor, kidney, liver, and heart (estimate of blood) identified on the images. Uptake was expressed as percent of injected dose per gram tissue (% ID/g).

In a further series the test system is SK-RC-52 tumor. The description is as above. The series is classed as in vivo, mouse. The protocol:
as §1, §2, §3, §4, §5, §6

The nature of series [2]: Pharmacokinetics after single i.v. dose in healthy male CD-1 mice. The series is classed as in vivo. The conditions noted are these: urine, iv, mouse, read-out: Injected dose retrieved from urine unchanged over 8 hours. The protocol:
The pharmacokinetics of DPI-4452 after a single intravenous (i.v.) dose were investigated in healthy mice. […] Plasma and urine samples collected after dosing were analyzed using a LC-HRMS (liquid chromatography coupled with high-resolution mass spectrometry) assay method. Concentration values were used for pharmacokinetic calculations.
Male CD-1 mice (3 animals per time point and per dose level; overall, 28.2-37.6 g body weight) were administered intravenously in the tail vein in a 2 mL/kg dosing volume. Blood samples were collected in K2EDTA tubes at 5 min, 15 min, 30 min, 1 h, 2 h, 4 h, 8 h, and urine was collected over 8 hours post dose. […]
Plasma and urine samples were analyzed by LC-HRMS after solid phase extraction, using a stable isotope-labeled internal standard (^13C6, ^15N-DPI-4452). […] The lower limit of quantification was 1.00 ng/mL in plasma and urine.
The non-compartmental (NCA) pharmacokinetic analysis of plasma concentration data was conducted using Phoenix 64 WinNonlin (Build 8.3.3.33) software. […] The terminal phase half-life (T1/2) was calculated by least-squares regression analysis of the terminal linear part of the log concentration-time curve. The area under the plasma concentration-time curve (AUC) was determined with the linear trapezoidal rule for increasing values and log trapezoidal rule for decreasing values up to the last measurable concentration.

The nature of series [3]: Functional observation battery (FOB), central nervous system, in dogs. In kind it is in vivo. To be noted: dog, FOB 1 hour after dosing. The text has this:
The test item treatment led to unaffected body weights, weight gains, and food intake. Likewise, no treatment-related abnormalities were reported during ophthalmic examinations, urinalysis, blood biochemistry, coagulation, and hematology investigations. There were no related organ weight changes and macroscopic and microscopic observations at early and late necropsies. Jacketed external telemetry was used to evaluate the potential cardiovascular and respiratory effects in the Subset B. Cardiorespiratory telemetry recordings were performed during the pre-test, Day 1 and 14. […] Arterial blood pressure parameters (systolic and diastolic blood pressure and mean arterial pressure) were measured continuously during consecutive 30-minute periods at pre-dose and for up to 6 h after dosing and over consecutive 60-minute periods up to 24 h after dosing. The respiratory rate was monitored on the pre-test, Day 1 and Day 14 at 0.5, 1, 2, 3, 4, 6, 8, 12, 16, 20, and 24 h. […] The potential effects on central nervous system parameters were evaluated under restrained and non-restrained conditions using a FOB in Subset A. Neurologic, autonomic, and behavioral investigations were performed in the pre-test, pre-dose, and 1 hour after dosing on Day 1.

As for `CC(C)C[C@@H]1NC(=O)[C@H](Cc2cccc(NC(=O)CCCS(N)(=O)=O)c2)NC(=O)[C@H](CC(=O)O)NC(=O)[C@H]2CCCN2C(=O)[C@H](CCC(=O)O)NC(=O)[C@@H](NC(=O)[C@H](CCC(N)=O)NC(=O)CN2CCN(C(=O)CN3CCN(CC(=O)O)CCN(CC(=O)O)CCN(CC(=O)O)CC3)CC2)CSCc2cccc(c2)CSC[C@@H](C(N)=O)NC(=O)[C@H](CO)NC(=O)[C@H](Cc2c[nH]c3ccccc23)NC(=O)[C@H]([C@@H](C)O)NC1=O` [DPI-4452, DOTA-PPAc-Gln-[Cys(3MeBn)-Glu-pro-Asp-Af3(Cpsu)-Leu-Thr-Trp-Ser-Cys]-NH2] ({DOTA}-[X1]QCE[dP]D[Phe(3-NHCO(CH2)3SO2NH2)]LTWSC-NH2; linker 3-12 via mXylylene), the tissue uptake in series [1] (SK-RC-52, Mean ± SEM, N=3, read-out: Peak Tumor Uptake) was determined as 9.42 ± 1.53 %ID/g; in series [1] (SK-RC-52 mice, read-out: Peak Kidney uptake), 3.43 ± 0.24 %ID/g. Also, the “Time to peak uptake in tumor” value in the series with SK-RC-52 tumor (SK-RC-52) is 1 h. Also, the “% remaining tumor uptake at 24 h p.i.” value with SK-RC-52 tumor (SK-RC-52, Mean ± SEM) was determined as 73.3 ± 0.8%. For the same compound, the “Blood uptake at 4 h p.i.” value in the series with SK-RC-52 tumor (SK-RC-52 mice) came to 0.05 ± 0.01 % ID/g. In addition, the “Kidney uptake at 24 h p.i.” value with SK-RC-52 tumor (SK-RC-52 mice) worked out at 0.95 ± 0.05 % ID/g. Also, the “Liver uptake at 4 h p.i.” value with SK-RC-52 tumor (SK-RC-52 mice) came out at 0.18 ± 0.04 % ID/g. Besides, the dose excreted at 8 h in series [2] (i.v. 0.7 mg/kg) turned out to be 3.57%; in series [2] (i.v. 5.5 mg/kg), 8.89%. For the same compound, in series [3], the “Central nervous system (neurologic, autonomic, behavioral domains)” value is reported as “No effects were observed on the central nervous system”.
